Values of other authors as cited in patent US20020099506A1, “Methods and apparatus for predicting ligand binding interactions” (priority 2000, published 2002).
Entries after “also recorded” stand apart in the source; their conditions may differ.

Tests used:
olfactory receptor S18 = conditions: according to Malnic et al.
[1] = tested on: olfactory receptor S25 (OR S25); conditions: data of Malnic et al.; 24 odorants of 4-9 carbon atoms

| Structure (SMILES) | experimental response of S18 (olfactory receptor S18) | other results |
| --- | --- | --- |
| O=C(O)CCCCCCCBr [8-bromo-octanoic acid] | responds experimentally | – |
| CCCCCCC(=O)O [heptanoic acid] | responds experimentally | – |
| CCCCCCCO [heptanol] | – | experimental odor response of S25 [1]: responds positively; also recorded: elicited measurable responses |
| CCCCCCO [hexanol] | – | experimental odor response of S25 [1]: responds positively; also recorded: elicited measurable responses |
| N[C@@H](Cc1c[nH]cn1)C(=O)O [histidine] | – | recognition by the enzyme (experimental observations) (histdyl t-RNA synthetase): the only ligand recognized by this enzyme |
| CCCCCCCCC(=O)O [nonanoic acid] | responds experimentally | – |
| CCCCCCCCCO [nonanol] | responds experimentally | – |
| CCCCCCCC(=O)O [octanoic acid] | responds experimentally | – |
| CCCCCCCCO [octanol] | responds experimentally | – |
